System: HLA-DRA mRNA in RFX-negative cell lines
Details: two RFX-negative suspension B-cell lines, 5 uM Azacytidine for 72 hours, RT-PCR 40 cycles, agarose gel detection
Protocol: Suspension B-cell lines were seeded at 10^5 cells per ml in 20 ml volume of media. […] Total RNA was prepared as described, and 5 ug of RNA were used in a standard reverse transcriptase, polymerase chain reaction (RT-PCR) for HLA-DRA mRNA and for γ-actin mRNA. PCR was performed for 40 cycles and the PCR products detected by 2.2% agarose gel electrophoresis.

Question: For `Nc1ncn([C@@H]2O[C@H](CO)[C@@H](O)[C@H]2O)c(=O)n1` [AzaC, Azacytidine], which “HLA-DRA mRNA production compared to untreated cells” value is on record?
Answer: increase in HLA-DRA mRNA production
